Laboratory results published in US20080194482A1, “Selective Apac2 Receptor Peptide Agonists” (priority 2005, published 2008).
Square brackets hold non-standard residues; d marks the D form. Peptide text beside a SMILES is read from it. * marks the point of attachment. Orn = NCCC[C@H](N)C(=O)O; Hexanoyl = CCCCCC(=O)*; Aib = CC(C)(N)C(=O)O

Key:
human PAC1 = biological target: T1, human PAC1 (Homo sapiens, UniProt P41586); assay: Filter binding assay, 125I-labeled PACAP-27 tracer, PAC1 membranes; details: read-out: Human PAC1 Receptor Binding (IC50; nM)
T1 construct: expressed in transfected cells
T1 sequence (P41586 21-468): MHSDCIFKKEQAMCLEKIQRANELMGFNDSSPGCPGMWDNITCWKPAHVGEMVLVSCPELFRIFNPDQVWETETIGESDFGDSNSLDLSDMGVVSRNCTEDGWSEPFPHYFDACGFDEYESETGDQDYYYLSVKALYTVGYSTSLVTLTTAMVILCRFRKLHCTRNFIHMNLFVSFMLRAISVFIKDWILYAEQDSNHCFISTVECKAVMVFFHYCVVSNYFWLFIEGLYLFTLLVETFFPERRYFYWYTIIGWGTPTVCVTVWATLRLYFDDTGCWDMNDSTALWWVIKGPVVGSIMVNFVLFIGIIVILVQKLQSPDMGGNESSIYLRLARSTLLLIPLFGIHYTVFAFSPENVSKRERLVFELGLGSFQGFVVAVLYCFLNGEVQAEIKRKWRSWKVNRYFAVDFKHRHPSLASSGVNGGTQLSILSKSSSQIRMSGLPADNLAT

human VPAC1 = biological target: T2, human VPAC1 (Homo sapiens, UniProt P32241); assay: Filter binding assay, 125I-labeled VIP tracer, VPAC1 membranes; details: read-out: Human VPAC1 Receptor Binding (IC50; nM)
T2 construct: expressed in transfected cells
T2 sequence (P32241 31-457): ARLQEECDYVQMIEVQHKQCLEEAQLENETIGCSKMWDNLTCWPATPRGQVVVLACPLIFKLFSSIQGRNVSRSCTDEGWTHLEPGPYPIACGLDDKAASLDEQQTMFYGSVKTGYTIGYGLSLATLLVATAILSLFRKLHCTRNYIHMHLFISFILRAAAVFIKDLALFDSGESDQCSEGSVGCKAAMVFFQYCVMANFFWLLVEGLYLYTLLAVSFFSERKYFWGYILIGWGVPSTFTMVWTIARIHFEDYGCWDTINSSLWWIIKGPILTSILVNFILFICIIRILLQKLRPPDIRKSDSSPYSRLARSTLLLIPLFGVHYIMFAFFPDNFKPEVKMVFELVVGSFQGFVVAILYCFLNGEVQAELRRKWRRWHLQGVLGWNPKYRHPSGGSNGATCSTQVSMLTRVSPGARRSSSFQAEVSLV

[1] = Rat serum stability (activity remaining, CHO-VPAC2 DiscoveRx read-out); assay type: in vitro ADME
Experimental: The rat serum is stored at 4° C. until use and is used within two weeks. […] The aliquot is stored with aprotinin at 4° C. The aliquot is stored without aprotinin at 37° C. The aliquots are incubated overnight. […] The plate(s) are washed with cells twice in incubation buffer. The plates are allowed to hold 50 μL incubation media per well for 15 minutes. 50 μL solution per well is transferred to the cells from the plate prepared with 11 serial 5× dilutions of peptide for the 4° C. and 37° C. aliquot for each peptide studied, using the maximal concentrations that are indicated by the primary screen, in duplicate. This step dilutes the peptide concentration by a factor of two. The cells are incubated at room temperature for 30 minutes. […] The cells are incubated on the shaker (300 rpm) for 1 hour. Normal procedure with the DiscoveRx kit is followed. cAMP standards are included in column 12. EC50 values are determined from the cAMP assay data.

For `CCCCCC(=O)N[C@@H](Cc1c[nH]cn1)C(=O)N[C@@H](CO)C(=O)N[C@@H](CC(=O)O)C(=O)N[C@@H](C)C(=O)N[C@H](C(=O)N[C@@H](Cc1ccccc1)C(=O)N[C@H](C(=O)N[C@@H](CC(=O)O)C(=O)N[C@@H](CC(N)=O)C(=O)N[C@@H](Cc1ccc(O)cc1)C(=O)N[C@H](C(=O)N[C@@H](Cc1ccccc1)C(=O)N[C@@H](CC(C)C)C(=O)N[C@@H](CCCNC(=N)N)C(=O)NC(C)(C)C(=O)N[C@@H](CCC(N)=O)C(=O)N[C@H](C(=O)N[C@@H](C)C(=O)N[C@@H](C)C(=O)NC(C)(C)C(=O)N[C@@H](CCCCN)C(=O)N[C@@H](Cc1ccc(O)cc1)C(=O)N[C@@H](CC(C)C)C(=O)N[C@@H](CCC(N)=O)C(=O)N[C@@H](CO)C(=O)N[C@H](C(=O)N[C@@H](CCCN)C(=O)N[C@@H](CC(N)=O)C(=O)N[C@@H](CCCN)C(=O)NCC(=O)NCC(=O)N1CCC[C@H]1C(=O)N[C@@H](CO)C(=O)N[C@@H](CO)C(=O)NCC(=O)N[C@@H](C)C(=O)N1CCC[C@H]1C(=O)N1CCC[C@H]1C(=O)N1CCC[C@H]1C(=O)N[C@@H](CO)C(=O)O)[C@@H](C)CC)C(C)C)[C@@H](C)O)[C@@H](C)O)C(C)C` [Agonist P369] (Hexanoyl-HSDAVFTDNYTFLR[Aib]QVAA[Aib]KYLQSI[Orn]N[Orn]GGPSSGAPPPS-OH; C-terminus assumed), the IC50 (human PAC1) was greater than 25000 nM, the IC50 (human VPAC1) was greater than 3000 nM and the “Rat Serum Stability (estimated purity in % after overnight incub.)” value [1] was 133.76%.

With `CCCCCC(=O)N[C@@H](Cc1c[nH]cn1)C(=O)N[C@@H](CO)C(=O)N[C@@H](CCC(=O)O)C(=O)N[C@@H](C)C(=O)N[C@H](C(=O)N[C@@H](Cc1ccccc1)C(=O)N[C@H](C(=O)N[C@@H](CCC(=O)O)C(=O)N[C@@H](CC(N)=O)C(=O)N[C@@H](Cc1ccc(O)cc1)C(=O)N[C@H](C(=O)N[C@@H](CCCN)C(=O)N[C@@H](CC(C)C)C(=O)N[C@@H](CCCNC(=N)N)C(=O)NC(C)(C)C(=O)N[C@@H](CCC(N)=O)C(=O)N[C@H](C(=O)N[C@@H](C)C(=O)N[C@@H](C)C(=O)NC(C)(C)C(=O)N[C@@H](CCCCN)C(=O)N[C@@H](Cc1ccc(O)cc1)C(=O)N[C@@H](CC(C)C)C(=O)N[C@@H](CCC(N)=O)C(=O)N[C@@H](CO)C(=O)N[C@H](C(=O)N[C@@H](CCCN)C(=O)N[C@@H](CC(N)=O)C(=O)N[C@@H](CCCN)C(=O)NCC(=O)NCC(=O)N1CCC[C@H]1C(=O)N[C@@H](CO)C(=O)N[C@@H](CO)C(=O)NCC(=O)N[C@@H](C)C(=O)N1CCC[C@H]1C(=O)N1CCC[C@H]1C(=O)N1CCC[C@H]1C(=O)N[C@@H](CO)C(=O)O)[C@@H](C)CC)C(C)C)[C@@H](C)O)[C@@H](C)O)C(C)C` [Agonist P362] (Hexanoyl-HSEAVFTENYT[Orn]LR[Aib]QVAA[Aib]KYLQSI[Orn]N[Orn]GGPSSGAPPPS-OH; C-terminus assumed) the IC50 (human PAC1) was greater than 25000 nM, the IC50 (human VPAC1) was greater than 3000 nM and the “Rat Serum Stability (estimated purity in % after overnight incub.)” value [1] was 82.77%.

For `CCCCCC(=O)N[C@@H](Cc1c[nH]cn1)C(=O)N[C@@H](CO)C(=O)N[C@@H](CC(=O)O)C(=O)N[C@@H](C)C(=O)N[C@H](C(=O)N[C@@H](Cc1ccccc1)C(=O)N[C@H](C(=O)N[C@@H](CC(=O)O)C(=O)N[C@@H](CC(N)=O)C(=O)N[C@@H](Cc1ccc(O)cc1)C(=O)N[C@H](C(=O)N[C@@H](CCC(N)=O)C(=O)N[C@@H](CC(C)C)C(=O)N[C@@H](CCCNC(=N)N)C(=O)NC(C)(C)C(=O)N[C@@H](CCC(N)=O)C(=O)N[C@H](C(=O)N[C@@H](C)C(=O)N[C@@H](C)C(=O)NC(C)(C)C(=O)N[C@@H](CCCCN)C(=O)N[C@@H](Cc1ccc(O)cc1)C(=O)N[C@@H](CC(C)C)C(=O)N[C@@H](CCC(N)=O)C(=O)N[C@@H](CO)C(=O)N[C@H](C(=O)N[C@@H](CCCN)C(=O)N[C@@H](CC(N)=O)C(=O)N[C@@H](CCCN)C(=O)NCC(=O)NCC(=O)N1CCC[C@H]1C(=O)N[C@@H](CO)C(=O)N[C@@H](CO)C(=O)NCC(=O)N[C@@H](C)C(=O)N1CCC[C@H]1C(=O)N1CCC[C@H]1C(=O)N1CCC[C@H]1C(=O)N[C@@H](CO)C(=O)O)[C@@H](C)CC)C(C)C)[C@@H](C)O)[C@@H](C)O)C(C)C` [Agonist P368] (Hexanoyl-HSDAVFTDNYTQLR[Aib]QVAA[Aib]KYLQSI[Orn]N[Orn]GGPSSGAPPPS-OH; C-terminus assumed), the IC50 (human PAC1) was greater than 25000 nM, the IC50 (human VPAC1) was greater than 3000 nM and the “Rat Serum Stability (estimated purity in % after overnight incub.)” value [1] was 99.82%.
